Assays:
[1] = Fluorescence lifetime by time correlated single photon counting; conditions: 2-aminoacridone attached directly to the α-carboxylic acid group
Description: The fluorescence lifetimes of the synthesised peptides recorded above were measured by time correlated single photon counting. Peptides were dissolved in aqueous buffer solutions and excited at 405 nm using a pulsed solid state laser diode (Picoquant LDH-405). Fluorescent emission was filtered through a narrow bandpass interference filter (480/20 nm) and single photons were detected by a photomultiplier tube detector (Hamamatsu R7400P) and counted using a fast timing board with histogramming memory (Ortec 9353).

[2] = target: T1, caspase 3 enzyme (Homo sapiens, UniProt P42574); test: Cleavage of fluorogenic peptides by caspase 3 (Example 3, FIG. 1); assay type: biochemical; conditions: 1 mM Zn2+
T1 sequence (P42574 29-175 limits assumed): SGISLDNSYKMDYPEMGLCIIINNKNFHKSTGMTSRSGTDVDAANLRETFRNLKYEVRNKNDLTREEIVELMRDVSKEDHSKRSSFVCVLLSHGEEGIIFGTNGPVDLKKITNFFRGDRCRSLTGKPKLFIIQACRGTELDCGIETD
T1 sequence (P42574 176-277 limits assumed): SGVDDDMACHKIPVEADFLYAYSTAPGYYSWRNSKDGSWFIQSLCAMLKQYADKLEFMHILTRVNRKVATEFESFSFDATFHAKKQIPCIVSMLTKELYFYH
Description: Caspase 3 cleaves WSDEVD-(2aa2) and WSDEVD-(2aa6) at the second aspartic acid residue.
PT14 peptide is WSDEVD-PT14, a conventionally labeled peptide, where PT14 is the Puretime 14 moiety. PT14 peptide is also known as peptide 10, but is not made in accordance with the method of the present invention. Puretime 14 is available from AssayMetrics Limited, Cardiff, UK.

Compound | fluorescence lifetime of adducts of 2-aminoacridone [1] | effect on the action of caspase 3 enzyme [2]
CC(=O)N[C@@H](C)C(=O)Nc1ccc2[nH]c3ccccc3c(=O)c2c1 | 18.1 nanoseconds | –
CC(=O)N[C@@H](Cc1c[nH]c2ccccc12)C(=O)Nc1ccc2[nH]c3ccccc3c(=O)c2c1 | 3.0 nanoseconds | –
CC(=O)N[C@@H](Cc1ccc(O)cc1)C(=O)Nc1ccc2[nH]c3ccccc3c(=O)c2c1 | 9.4 nanoseconds | –
zinc ions [reference compound] | – | inhibited the action of the enzyme

Reference: patent US20110039289A1, “FLUOROGENIC PEPTIDES AND THEIR METHOD OF PRODUCTION” (priority 2008, published 2011)
